Columns and labels:
[1] = test system: CDM5 cells (β-tcTet cells); test: Cell membrane potential measured with the bis-oxonol assay; type: cell-based
Description: In order to test the bioefficacy of GLP-1, which was believed to be secreted by β-1081 cells, the supernatant of the 1081 cells were kept for 4 hours in 25 mM KRBH. CDM5 cells (a type of β-cTCtet cell) were then stimulated with this supernatant. Next, the effect of this stimulation in cell membrane potential was measured using the bis-oxonol assay.
Those skilled in the art will recognize that GLP-1 has the effect of depolarizing the cell membrane upon application. This depolarization is the result of the stimulatory effect of GLP-1 on cAMP, which, as discussed above, leads to increased insulin secretion. The increased insulin secretion is the result of both the enhanced closing of ATP sensitive potassium (K^+ ATP) channels in the membrane of the β-cell as well as the protein kinase A activation of distal exocytotic events.
The cells were allowed to equilibrate in 8 mM glucose and 400 μM Diazoxide for 600 seconds. At 200, 400, 600, 800, and 1000 seconds, 1, 2, 4, 6, and 8 nM GLP-1-gly8, respectively, were added to the medium.
In this experiment, the cells were equilibrated at 8 mM glucose and 400 μM of diazoxide for 600 seconds. At t=100 seconds, 100 nM of Exendine-(9-39) was added. […] At t=600 seconds, 20 μl of water was added as a dilution control.
Again, the cells were allowed to equilibrate at 8 mM glucose and 400 μM Diazoxide for 600 seconds. At 200 seconds, 24 μl of the supernatant of the GLP-1 secreting 1081 cells were added to the cells. […] At 1500 seconds, 24 μl of the supernatant was added.
Exendine (9-39) is an inhibitor of GLP-1 activity. […] In this experiment, the equilibration period lasted from time […]. At t=200 seconds, […] of Exendine (9-39) was added to the cells.

[2] = test system: diabetic mice implanted with encapsulated CDM3D cells; test: In vivo evaluation of GLP-1-gly8 injected intraperitoneally in diabetic mice implanted with encapsulated CDM3D cells
Source text: The effect observed in the control group can probably be attributed to the few remaining islets (β-cells) in the pancreas of the mice that remain functional following streptozocin treatment.

[3] = comparison of GLP-1-gly8 and wild type GLP-1; cited from earlier work

Compound	membrane potential ([1]; 8 mM glucose and 400 μM Diazoxide, 2×10^6 cells, FIG. 6)	membrane potential ([1]; 400 μm Diazoxide at t=2800 s, FIG. 2)	glycemia after injection, test group ([2]; 0.1 nmol IP at t=0, streptozocin-diabetic mice implanted IP with encapsulated CDM3D cells, first two hours, FIG. 1)	glycemia after injection, control group ([2]; 0.1 nmol IP at t=0, streptozocin-diabetic non-implanted mice, FIG. 1)	loss of the effect on glycemia in the test group ([2]; 0.1 nmol IP, implanted diabetic mice)	membrane potential ([1]; 8 nM GLP-1-gly8, cells in 8 mM glucose and 400 μM Diazoxide, FIG. 3)	membrane potential ([1]; 1, 2, 4, 6 nM GLP-1-gly8, cells in 8 mM glucose and 400 μM Diazoxide, FIG. 3)	membrane potential ([1]; GLP-1-gly8 after exposure of the cells to Exendine-(9-39), FIG. 4)	half-life [3]
CC1=NS(=O)(=O)c2cc(Cl)ccc2N1 [Diazoxide]	maximum hyperpolarization	maximum depolarization							
GLP-1-gly8: commercial GLP-1-gly8, given rather than wild-type GLP-1; half-life longer than wild type GLP-1 (HDEFERHGEGTFTSDVSSYLEGQAAKEFIAWLVKGRG; Glucagon-like peptide 1; UniProt P01275 92-128, looked up, variant A8G)			large decrease in glycemia	smaller (and shorter decrease) in glycemia	120 min	saturation of the effect	depolarization of the cell membrane	no response was observed	longer than the half-life of wild type GLP-1

— patent publication US20020025306A1, “Methods of increasing the glucose responsiveness of pancreatic ss-cells” (priority 2000, published 2002)
